# According to article PMC2363476 (British Journal of Cancer, 2000):
# Where a name gives a salt, the structure may show the parent alone. Read-outs that look alike come from different tables or passages of the source.
# What was measured:
# [1] = Plasma pharmacokinetics of irinotecan and SN-38 (reversed-phase HPLC); settings: for SN-38/irinotecan AUC ratio / SN-38 Cmax / AUC / Cmax: cycle 1; for SN-38 Cmax: observed Cmax; for AUC / Cmax: human, plasma; for AUC: intravenous, Irinotecan AUC; for Cmax: iv, Irinotecan Cmax, estimated at the end of i.v. infusion
# Procedure: Other radiological investi- gations were carried out if indicated. […] Pharmacokinetic analysis was performed using WinNonlin software. […] Patients were seen weekly while on treatment.
# [2] = 1995, cited from earlier work
# [3] = tested on: patients with advanced GI tract adenocarcinoma
# Source text: The primary objectives of this study were to determine the maximum tolerated doses (MTD) of the two drugs given as short infusions every 3 weeks and to determine the toxic effects and DLT of the combination. Secondary objectives were to measure the pharmacokinetics of irinotecan, SN-38 and raltitrexed, to assess the anti-tumour effect of the combination and to recom- mend a safe dose for phase II evaluation. METHODS Definitions DLT was defined as any grade 3 or 4 non-haematological toxicity (except alopecia) following cycle 1; grade 4 neutropenia or grade 3-4 neutropenia associated with fever (> 38C) or sepsis; grade 4 thrombocytopenia or any grade of thrombocytopenia associated with haemorrhage. MTD was defined as the dose level at which 50% of patients experienced the same DLT. […] Exclusion criteria were: previous treatment with topoisomerase I inhibitor; chronic enteropathy; symptomatic cerebral metastasis or leptomeningeal carcinomatosis; unresolved bowel obstruction; pregnancy; previous malignant disease (except adequately treated carcinoma in situ of the cervix uteri or basal cell carcinoma of the skin). Pre-treatment evaluation Prior to entry, patients were evaluated with a physical examina- tion. An ECG, chest X-ray and CT scan of thorax abdomen and pelvis were carried out on all patients. Other radiological investi- gations were carried out if indicated. A full blood count, renal function tests, liver function tests and prothrombin time were also performed. […] A minimum of three patients were recruited to each dose level, and escalation to the next level was carried out when all three had been observed for a minimum of 2 weeks. The initial design was for the level below MTD to be expanded to six patients. […] Patients received six cycles of treatment subject to favourable response. Further cycles could be administered at the investigators' discre- tion if there was evidence of continuing clinical benefit. […] Pharmacokinetic analysis was performed using WinNonlin software. The calculation of kinetic parameters was performed using a 2- or 3-compartment open model for irinotecan, and a non-compartmental analysis for its metabolite SN-38 and raltitrexed. The following parameters were evaluated: maximum plasma concentration (Cmax ); area under the plasma concentration-time curve (AUC); total body clearance (Cl); volume of distribution at steady state (Vss ) and terminal half-life (t1/2 ). Evaluation and management of toxicity No prophylactic antidiarrhoeal treatment was given. […] Patients were seen weekly while on treatment. Toxicities were graded according to the NCI common toxicity criteria (NCI-CTC). […] Any patient experiencing concomitant vomiting was hospitalized to prevent dehydration. […] All patients with febrile neutropaenia were admitted to hospital and treated with intravenous antibiotics. […] In the case of myelosuppression lasting more than 5 weeks from the date of treatment, the patient was withrawn from the study.
# [4] = Plasma pharmacokinetics of raltitrexed (radioimmunoassay); format: in vivo; settings: human, intravenous
# Procedure: […]. […] […]. […] 261 courses were administered. […] Two others had lethargy caused by disease progression. There was no first-cycle neutropenia. […] […]; 6/30 patients (20%) had objective responses. This combination is active with manageable toxicity. […] Other radiological investi- gations were carried out if indicated. […] […]. […] Pharmacokinetic analysis was performed using WinNonlin software. […] […]. Patients were seen weekly while on treatment. […] […]. […] All the other patients were evaluable for toxicity. […] Duration of neutropaenia ranged from 3-8 days. […] Grade 3 lethargy was therefore defined as a DLT. […] […]. […] They therefore continued treatment as scheduled. […] Dose delays were seen after 24/143 cycles (17%). […] Six patients required dose reduction.
# [5] = 1998, cited from earlier work
# [6] = dose level I (irinotecan 175, raltitrexed 2.6 mg m-2), n=3
# [7] = dose level II (irinotecan 200, raltitrexed 2.6 mg m-2), n=3
# [8] = dose level III (irinotecan 250, raltitrexed 2.6 mg m-2), n=3
# [9] = dose level IV (irinotecan 300, raltitrexed 2.6 mg m-2), n=3
# [10] = dose level V (irinotecan 350, raltitrexed 2.6 mg m-2), n=3
# [11] = dose level VI (irinotecan 350, raltitrexed 3.0 mg m-2), n=6
# [12] = dose level VII (irinotecan 400, raltitrexed 2.6 mg m-2), n=5
# [13] = dose level I (irinotecan 175, raltitrexed 2.6 mg m-2), cycle 1, n=3
# [14] = dose level II (irinotecan 200, raltitrexed 2.6 mg m-2), cycle 1, n=3
# [15] = dose level III (irinotecan 250, raltitrexed 2.6 mg m-2), cycle 1, n=3
# [16] = dose level IV (irinotecan 300, raltitrexed 2.6 mg m-2), cycle 1, n=3
# [17] = dose level V (irinotecan 350, raltitrexed 2.6 mg m-2), cycle 1, n=3
# [18] = dose level VI (irinotecan 350, raltitrexed 3.0 mg m-2), cycle 1, n=6
# [19] = dose level VII (irinotecan 400, raltitrexed 2.6 mg m-2), cycle 1, n=6
# [20] = 3.0 mg m-2, 14C labelled raltitrexed, single agent, ref Beale et al
compound,measurement,setting,value
CCc1c2c(nc3ccc(O)cc13)-c1cc3c(c(=O)n1C2)COC(=O)[C@]3(O)CC [SN-38],SN-38 time of maximal concentrations following the end of i.v. infusion,[1]; all dose levels,≤ 60 min
same,SN-38/irinotecan AUC ratio,[1]; [6],2.1%
same,SN-38 Cmax,[1]; [6],48000 µg/mL
same,SN-38/irinotecan AUC ratio,[1]; [7],3.2%
same,SN-38 Cmax,[1]; [7],74000 µg/mL
same,SN-38/irinotecan AUC ratio,[1]; [8],2.3%
same,SN-38 Cmax,[1]; [8],60000 µg/mL
same,SN-38/irinotecan AUC ratio,[1]; [9],2.1%
same,SN-38 Cmax,[1]; [9],71000 µg/mL
same,SN-38/irinotecan AUC ratio,[1]; [10],2.9%
same,SN-38 Cmax,[1]; [10],57000 µg/mL
same,SN-38/irinotecan AUC ratio,[1]; [11],2.1%
same,SN-38 Cmax,[1]; [11],100000 µg/mL
same,SN-38/irinotecan AUC ratio,[1]; [12],2.7%
same,SN-38 Cmax,[1]; [12],117000 µg/mL
same,"SN-38 apparent terminal half-life, mean value",[1]; over the administered dose range,0.462 days
same,"SN-38/irinotecan AUC ratio, overall mean value",[1]; over the tested dose range,2.4%
same,SN-38 t1/2,"[2]; 168 phase I cancer patients treated with irinotecan alone, ref Chabot et al",0.442 days
same,"SN-38/irinotecan AUC ratio, overall mean value","[2]; irinotecan monotherapy, ref Abigerges et al",3.1%
"CCc1c2c(nc3ccc(OC(=O)N4CCC(N5CCCCC5)CC4)cc13)-c1cc3c(c(=O)n1C2)COC(=O)[C@]3(O)CC [irinotecan, Irinotecan hydrochloride]",AUC,[1]; [6],13100 ng·h/mL
same,AUC,[1]; [7],16000 ng·h/mL
same,AUC,[1]; [8],14600 ng·h/mL
same,AUC,[1]; [9],22600 ng·h/mL
same,AUC,[1]; [10],26600 ng·h/mL
same,AUC,[1]; [11],29000 ng·h/mL
same,AUC,[1]; [12],27000 ng·h/mL
same,Cmax,[1]; [6],3.53 µg/mL
same,Cmax,[1]; [7],4.7 µg/mL
same,Cmax,[1]; [8],5.92 µg/mL
same,Cmax,[1]; [9],5.98 µg/mL
same,Cmax,[1]; [10],4.89 µg/mL
same,Cmax,[1]; [11],5.43 µg/mL
same,Cmax,[1]; [12],5.41 µg/mL
same,"MTD, irinotecan dose","[3]; with raltitrexed 2.6 mg m-2, 3-weekly (level VII)",400 mg m-2
same,"recommended dose for phase II evaluation, irinotecan",[3]; with raltitrexed 3.0 mg m-2 every 3 weeks (level VI),350 mg m-2
Cc1nc2ccc(CN(C)c3ccc(C(=O)N[C@@H](CCC(=O)O)C(=O)O)s3)cc2c(=O)[nH]1 [raltitrexed],AUC,[4]; [13],1710 ng·h/mL
same,Cmax,[4]; [13],0.561 µg/mL
same,clearance,"[4]; dose level I (irinotecan 175, raltitrexed 2.6 mg m-2), cycle 1, n=3, read-out: Raltitrexed Cl (converted)",50.2 mL/min
same,Vd,"[4]; dose level I (irinotecan 175, raltitrexed 2.6 mg m-2), cycle 1, n=3, read-out: Raltitrexed Vss",40.7 L
same,half-life,"[4]; dose level I (irinotecan 175, raltitrexed 2.6 mg m-2), cycle 1, n=3, read-out: Raltitrexed t1/2 terminal (converted)",9.25 days
same,AUC,[4]; [14],1440 ng·h/mL
same,Cmax,[4]; [14],0.42 µg/mL
same,clearance,"[4]; dose level II (irinotecan 200, raltitrexed 2.6 mg m-2), cycle 1, n=3, read-out: Raltitrexed Cl (converted)",78.3 mL/min
same,Vd,"[4]; dose level II (irinotecan 200, raltitrexed 2.6 mg m-2), cycle 1, n=3, read-out: Raltitrexed Vss",27.3 L
same,half-life,"[4]; dose level II (irinotecan 200, raltitrexed 2.6 mg m-2), cycle 1, n=3, read-out: Raltitrexed t1/2 terminal (converted)",7.92 days
same,AUC,[4]; [15],1460 ng·h/mL
same,Cmax,[4]; [15],0.291 µg/mL
same,clearance,"[4]; dose level III (irinotecan 250, raltitrexed 2.6 mg m-2), cycle 1, n=3, read-out: Raltitrexed Cl (converted)",56 mL/min
same,Vd,"[4]; dose level III (irinotecan 250, raltitrexed 2.6 mg m-2), cycle 1, n=3, read-out: Raltitrexed Vss",60.2 L
same,half-life,"[4]; dose level III (irinotecan 250, raltitrexed 2.6 mg m-2), cycle 1, n=3, read-out: Raltitrexed t1/2 terminal (converted)",14.4 days
same,AUC,[4]; [16],1810 ng·h/mL
same,Cmax,[4]; [16],0.676 µg/mL
same,clearance,"[4]; dose level IV (irinotecan 300, raltitrexed 2.6 mg m-2), cycle 1, n=3, read-out: Raltitrexed Cl (converted)",47.2 mL/min
same,Vd,"[4]; dose level IV (irinotecan 300, raltitrexed 2.6 mg m-2), cycle 1, n=3, read-out: Raltitrexed Vss",32.3 L
same,half-life,"[4]; dose level IV (irinotecan 300, raltitrexed 2.6 mg m-2), cycle 1, n=3, read-out: Raltitrexed t1/2 terminal (converted)",14.5 days
same,AUC,[4]; [17],2520 ng·h/mL
same,Cmax,[4]; [17],0.736 µg/mL
same,clearance,"[4]; dose level V (irinotecan 350, raltitrexed 2.6 mg m-2), cycle 1, n=3, read-out: Raltitrexed Cl (converted)",41.7 mL/min
same,Vd,"[4]; dose level V (irinotecan 350, raltitrexed 2.6 mg m-2), cycle 1, n=3, read-out: Raltitrexed Vss",30.2 L
same,half-life,"[4]; dose level V (irinotecan 350, raltitrexed 2.6 mg m-2), cycle 1, n=3, read-out: Raltitrexed t1/2 terminal (converted)",16.8 days
same,AUC,[4]; [18],2480 ng·h/mL
same,Cmax,[4]; [18],0.772 µg/mL
same,clearance,"[4]; dose level VI (irinotecan 350, raltitrexed 3.0 mg m-2), cycle 1, n=6, read-out: Raltitrexed Cl (converted)",40.2 mL/min
same,Vd,"[4]; dose level VI (irinotecan 350, raltitrexed 3.0 mg m-2), cycle 1, n=6, read-out: Raltitrexed Vss",25.8 L
same,half-life,"[4]; dose level VI (irinotecan 350, raltitrexed 3.0 mg m-2), cycle 1, n=6, read-out: Raltitrexed t1/2 terminal (converted)",12.3 days
same,AUC,[4]; [19],1500 ng·h/mL
same,Cmax,[4]; [19],0.574 µg/mL
same,clearance,"[4]; dose level VII (irinotecan 400, raltitrexed 2.6 mg m-2), cycle 1, n=6, read-out: Raltitrexed Cl (converted)",55.7 mL/min
same,Vd,"[4]; dose level VII (irinotecan 400, raltitrexed 2.6 mg m-2), cycle 1, n=6, read-out: Raltitrexed Vss",43.8 L
same,half-life,"[4]; dose level VII (irinotecan 400, raltitrexed 2.6 mg m-2), cycle 1, n=6, read-out: Raltitrexed t1/2 terminal (converted)",10.9 days
same,clearance,"[4]; over all dose ranges, 27 patients, read-out: raltitrexed Cl (converted)",51.7 mL/min
same,half-life,"[4]; over all dose ranges, 27 patients, read-out: raltitrexed t1/2 (converted)",12.1 days
same,patients with lower limb cellulitis secondary to raltitrexed,[3]; combination treatment,One
same,"recommended dose for phase II evaluation, raltitrexed",[3]; with irinotecan 350 mg m-2 every 3 weeks (level VI),3.0 mg m-2
same,"MTD, raltitrexed dose","[3]; with irinotecan 400 mg m-2, 3-weekly (level VII)",2.6 mg m-2
same,raltitrexed AUC,[5]; [20],2342 ng/h/mL
same,raltitrexed Cmax,[5]; [20],0.737 µg/mL
same,raltitrexed clearance,[5]; [20],2.48 L/h
same,change of raltitrexed AUC in renal impairment,"[5]; patients with measured creatinine clearance less than 65 ml min-1, ref Judson et al",approximately doubled
